Test results as given in US20230233569A1 (Revolution Medicines, Inc., priority 2020, published 2023).
pEC50, pIC50: −log10 of the molar value. Where two headings read alike, the source gives them in different places.

Experiments:
[1] = target: KRAS G12D (Homo sapiens, UniProt P01116+P62937, G12D); test: Ras-Raf disruption / FRET / MOA assay (BRAF RBD); type: biochemical; details: with Cyclophilin A
Procedure, shortened: (§1)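 Compound-induced Ras–Cyclophilin A ternary complex disrupting BRAF RBD binding, read as IC50 from reduced TR-FRET ratio relative to DMSO. Final: Ras-GMPPNP 12.5 nM, BRAF RBD 50 nM, Cyclophilin A 25 μM, top compound 30 μM (3-fold, 10 points); 3 h at 25 °C, then 1.5 h with detection antibodies.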

[2] = target: KRAS G13D (Homo sapiens, UniProt P01116+P62937, G13D); test: Ras-Raf disruption / FRET / MOA assay (BRAF RBD); type: biochemical; details: with Cyclophilin A
Sequence of KRAS G13D (P01116 1-169 isoform P01116-2 G13D limits assumed): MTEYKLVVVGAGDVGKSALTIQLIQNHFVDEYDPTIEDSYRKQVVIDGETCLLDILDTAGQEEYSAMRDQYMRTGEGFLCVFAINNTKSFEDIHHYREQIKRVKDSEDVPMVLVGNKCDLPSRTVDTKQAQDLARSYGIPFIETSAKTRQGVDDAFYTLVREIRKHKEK
Sequence of KRAS G13D (P62937 whole entry): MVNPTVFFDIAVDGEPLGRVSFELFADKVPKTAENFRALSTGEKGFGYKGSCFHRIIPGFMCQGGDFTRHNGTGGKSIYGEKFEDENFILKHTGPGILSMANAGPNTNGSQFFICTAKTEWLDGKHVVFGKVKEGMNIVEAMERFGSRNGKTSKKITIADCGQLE
Procedure, shortened: as §1

[3] = target: KRAS WT (Homo sapiens, UniProt P01116+P62937); test: Ras-Raf disruption / FRET / MOA assay (BRAF RBD); type: biochemical; details: with Cyclophilin A
Sequence of KRAS WT (P01116 1-169 isoform P01116-2 limits assumed): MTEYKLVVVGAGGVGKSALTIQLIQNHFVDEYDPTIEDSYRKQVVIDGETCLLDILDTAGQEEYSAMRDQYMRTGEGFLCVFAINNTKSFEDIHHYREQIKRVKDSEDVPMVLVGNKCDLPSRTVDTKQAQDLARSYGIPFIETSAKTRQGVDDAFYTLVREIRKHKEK
Sequence of KRAS WT (P62937 whole entry): as the sequence (P62937 whole entry) above
Procedure, shortened: as §1

[4] = target: NRAS WT (Homo sapiens, UniProt P01111+P62937); test: Ras-Raf disruption / FRET / MOA assay (BRAF RBD); type: biochemical
Sequence of NRAS WT (P01111 whole entry): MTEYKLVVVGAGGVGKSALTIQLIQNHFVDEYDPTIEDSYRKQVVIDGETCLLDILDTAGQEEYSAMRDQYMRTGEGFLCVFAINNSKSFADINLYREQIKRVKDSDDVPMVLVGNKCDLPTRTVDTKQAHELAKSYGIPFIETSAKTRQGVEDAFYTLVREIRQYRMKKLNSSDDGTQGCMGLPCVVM
Sequence of NRAS WT (P62937 whole entry): as the sequence (P62937 whole entry) above
Procedure, shortened: as §1

[5] = target: NRAS G12C (Homo sapiens, UniProt P01111+P62937, G12C); test: Ras-Raf disruption / FRET / MOA assay (BRAF RBD); type: biochemical
Sequence of NRAS G12C (P01111 whole entry G12C): as the sequence (P01111 whole entry) above, with G12C counted along it
Sequence of NRAS G12C (P62937 whole entry): as the sequence (P62937 whole entry) above
Procedure, shortened: as §1

[6] = target: KRAS Q61H (Homo sapiens, UniProt P01116+P62937, Q61H); test: Ras-Raf disruption / FRET / MOA assay (BRAF RBD); type: biochemical
Sequence of KRAS Q61H (P01116 1-169 isoform P01116-2 Q61H limits assumed): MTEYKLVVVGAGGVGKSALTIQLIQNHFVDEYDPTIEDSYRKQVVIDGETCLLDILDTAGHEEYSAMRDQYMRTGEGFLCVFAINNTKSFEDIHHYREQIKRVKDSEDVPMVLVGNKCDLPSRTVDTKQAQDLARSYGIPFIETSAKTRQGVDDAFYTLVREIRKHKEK
Sequence of KRAS Q61H (P62937 whole entry): as the sequence (P62937 whole entry) above
Procedure, shortened: as §1

[7] = target: NRAS Q61R (Homo sapiens, UniProt P01111+P62937, Q61R); test: Ras-Raf disruption / FRET / MOA assay (BRAF RBD); type: biochemical
Sequence of NRAS Q61R (P01111 whole entry Q61R): as the sequence (P01111 whole entry) above, with Q61R counted along it
Sequence of NRAS Q61R (P62937 whole entry): as the sequence (P62937 whole entry) above
Procedure, shortened: as §1

[8] = target: KRAS G12S (Homo sapiens, UniProt P01116+P62937, G12S); test: Ras-Raf disruption / FRET / MOA assay (BRAF RBD); type: biochemical; details: with Cyclophilin A
Sequence of KRAS G12S (P01116 1-169 isoform P01116-2 G12S limits assumed): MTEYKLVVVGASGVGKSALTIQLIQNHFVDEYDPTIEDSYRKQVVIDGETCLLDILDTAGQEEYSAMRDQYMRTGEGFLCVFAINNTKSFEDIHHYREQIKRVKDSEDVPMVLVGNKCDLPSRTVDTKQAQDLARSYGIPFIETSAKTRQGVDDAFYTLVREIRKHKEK
Sequence of KRAS G12S (P62937 whole entry): as the sequence (P62937 whole entry) above
Procedure, shortened: as §1

[9] = target: KRAS G12V (Homo sapiens, UniProt P01116+P62937, G12V); test: Ras-Raf disruption / FRET / MOA assay (BRAF RBD); type: biochemical; details: with Cyclophilin A
Sequence of KRAS G12V (P01116 1-169 isoform P01116-2 G12V limits assumed): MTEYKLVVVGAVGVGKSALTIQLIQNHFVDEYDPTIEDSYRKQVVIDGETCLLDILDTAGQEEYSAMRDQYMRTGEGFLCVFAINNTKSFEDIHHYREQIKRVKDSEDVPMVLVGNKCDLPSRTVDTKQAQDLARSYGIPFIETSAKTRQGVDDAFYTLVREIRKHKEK
Sequence of KRAS G12V (P62937 whole entry): as the sequence (P62937 whole entry) above
Procedure, shortened: as §1

[10] = target: KRAS G13C (Homo sapiens, UniProt P01116+P62937, G13C); test: Ras-Raf disruption / FRET / MOA assay (BRAF RBD); type: biochemical; details: with Cyclophilin A
Sequence of KRAS G13C (P01116 1-169 isoform P01116-2 G13C limits assumed): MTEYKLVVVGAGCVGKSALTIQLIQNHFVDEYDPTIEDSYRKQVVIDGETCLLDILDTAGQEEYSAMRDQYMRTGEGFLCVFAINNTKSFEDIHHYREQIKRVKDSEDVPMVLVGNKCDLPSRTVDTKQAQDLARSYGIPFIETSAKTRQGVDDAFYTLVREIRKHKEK
Sequence of KRAS G13C (P62937 whole entry): as the sequence (P62937 whole entry) above
Procedure, shortened: as §1

[11] = target: NRAS Q61K (Homo sapiens, UniProt P01111+P62937, Q61K); test: Ras-Raf disruption / FRET / MOA assay (BRAF RBD); type: biochemical
Sequence of NRAS Q61K (P01111 whole entry Q61K): as the sequence (P01111 whole entry) above, with Q61K counted along it
Sequence of NRAS Q61K (P62937 whole entry): as the sequence (P62937 whole entry) above
Procedure, shortened: as §1

[12] = tested on: AsPC-1 (K-Ras G12D); test: CellTiter-Glo cell viability assay; type: cell-based; details: Homo sapiens, ASPC1, 120 h, read-out: AsPC-1 Cell Viability assay data IC50, K-Ras G12D, 5-day treatment
Procedure, shortened: (§2)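 Luminescent viability readout on day 5, plates first brought to room temperature for ~30 min; compounds added straight to plated RAS-mutant cells. Values expressed as percent of mean DMSO signal, curves fitted with a four-parameter logistic model.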

[13] = tested on: NCI-H358 (K-Ras G12C); test: CellTiter-Glo cell viability assay; type: cell-based; details: Homo sapiens, NCI-H358, 120 h, read-out: H358 Cell Viability assay data IC50, K-Ras G12C, 5-day treatment
Procedure, shortened: as §2

[14] = target: KRAS G12C (Homo sapiens, UniProt P01116+P62937, G12C); test: Ras-Raf disruption / FRET / MOA assay (BRAF RBD); type: biochemical; details: with Cyclophilin A
Sequence of KRAS G12C (P01116 1-169 isoform P01116-2 G12C limits assumed): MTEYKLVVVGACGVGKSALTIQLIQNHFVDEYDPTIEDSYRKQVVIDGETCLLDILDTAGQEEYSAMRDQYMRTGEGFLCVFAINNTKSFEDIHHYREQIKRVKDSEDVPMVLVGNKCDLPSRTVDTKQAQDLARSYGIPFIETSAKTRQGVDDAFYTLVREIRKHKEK
Sequence of KRAS G12C (P62937 whole entry): as the sequence (P62937 whole entry) above
Procedure, shortened: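 TR-FRET read-out after 1.5 h with anti-His Eu-W1024 (10 nM) and anti-GST APC (50 nM), following 3 h at 25 °C of compound (top 30 μM, 3-fold, 10 points) with 25 μM Cyclophilin A, 12.5 nM GMPPNP-loaded K-Ras G12C and 50 nM BRAF RBD; IC50 reported.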

[15] = tested on: AsPC-1 (K-Ras G12D); test: Potency assay: pERK; type: cell-based; details: Homo sapiens, ASPC1, read-out: pERK EC50
[16] = KRAS G12D FRET data IC50, Ras-Raf disruption
[17] = KRAS G13D FRET data IC50, Ras-Raf disruption
[18] = KRAS WT FRET data IC50, Ras-Raf disruption
[19] = NRAS G12C FRET data IC50, NRAS G12C
[20] = KRAS G12S FRET data IC50, Ras-Raf disruption
[21] = KRAS G12V FRET data IC50, Ras-Raf disruption
[22] = KRAS G13C FRET data IC50, Ras-Raf disruption
[23] = KRAS G12C FRET data IC50, Ras-Raf disruption

Sequence of KRAS G12D (P01116 1-169 isoform P01116-2 G12D limits assumed): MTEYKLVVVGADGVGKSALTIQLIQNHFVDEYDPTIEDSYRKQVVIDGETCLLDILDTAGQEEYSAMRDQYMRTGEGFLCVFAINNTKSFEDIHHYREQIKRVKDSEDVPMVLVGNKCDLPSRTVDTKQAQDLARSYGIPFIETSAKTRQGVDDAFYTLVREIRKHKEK
Sequence of KRAS G12D (P62937 whole entry): as the sequence (P62937 whole entry) above

Structure (SMILES) | pIC50 [1, 16] | pIC50 [2, 17] | pIC50 [3, 18] | pIC50 [4] | pIC50 [5, 19] | pIC50 [6] | pIC50 [7] | pIC50 [8, 20] | pIC50 [9, 21] | pIC50 [10, 22] | pIC50 [11] | pIC50 [12] | pIC50 [13] | pIC50 [14, 23] | pEC50 [15] | also measured
CCn1c(-c2cccnc2[C@H](C)OC)c2c3cc(ccc31)-c1cc(O)cc(c1)C[C@H](NC(=O)[C@H](C(C)C)N(C)C(=O)CNC(=O)[C@@H]1N[C@@H]1C1CC1)C(=O)N1CCC[C@H](N1)C(=O)OCC(C)(C)C2 [Example 141] | 7.00 to 8.00 | 6.00 to 7.00 | 7.00 to 8.00 | 7.00 to 8.00 | 7.00 to 8.00 | 7.00 to 8.00 | 6.00 to 7.00 | 7.00 to 8.00 | 7.00 to 8.00 | 7.00 to 8.00 | 6.00 to 7.00 | 6.00 to 7.00 | 6.00 to 7.00 | 7.00 to 8.00 | > 5.30 | –
CCn1c(-c2cccnc2[C@H](C)OC)c2c3cc(ccc31)-c1cc(O)cc(c1)C[C@H](NC(=O)[C@H](C(C)C)N(C)C(=O)CN(C)C(=O)[C@@H]1CN1CCOC)C(=O)N1CCC[C@H](N1)C(=O)OCC(C)(C)C2 (stereo partly drawn) [Example 160] | 6.00 to 7.00 | 6.00 to 7.00 | 7.00 to 8.00 | – | > 8.00 | – | – | 7.00 to 8.00 | 7.00 to 8.00 | 7.00 to 8.00 | – | 6.00 to 7.00 | > 8.00 | 7.00 to 8.00 | > 5.30 | –
CCn1c(-c2cccnc2[C@H](C)OC)c2c3cc(ccc31)-c1cc(O)cc(c1)C[C@H](NC(=O)[C@H](C(C)C)N(C)C(=O)CN(C)C(=O)[C@H]1CN1CCCOC)C(=O)N1CCC[C@H](N1)C(=O)OCC(C)(C)C2 (stereo partly drawn) [Example 201] | 6.00 to 7.00 | 6.00 to 7.00 | 7.00 to 8.00 | – | > 8.00 | – | – | 7.00 to 8.00 | 7.00 to 8.00 | 7.00 to 8.00 | – | 6.00 to 7.00 | > 8.00 | > 8.00 | > 5.30 | –
CCn1c(-c2cc(N3CCN(C)CC3)cnc2[C@H](C)OC)c2c3cc(ccc31)-c1cc(O)cc(c1)C[C@H](NC(=O)[C@H](C1CCCC1)N(C)C(=O)CN(C)C(=O)[C@H]1CN1)C(=O)N1CCC[C@H](N1)C(=O)OCC(C)(C)C2 [Example 209, (2R)—N-(2-(((1S)-1-cyclopentyl-2-(((6^3S,4S)-1^1-ethyl-2^5-hydroxy-1^2-(2-((S)-1-methoxyethyl)-5-(4-methylpiperazin-1-yl)pyridin-3-yl)-10,10-dimethyl-5,7-dioxo-6^1,6^2,6^3,6^4,6^5,6^6-hexahydro-1^1H-8-oxa-1(5,3)-indola-6(1,3)-pyridazina-2(1,3)-benzenacycloundecaphane-4-yl)amino)-2-oxoethyl)(methyl)amino)-2-oxoethyl)-N-methylaziridine-2-carboxamide] | 7.00 to 8.00 | 7.00 to 8.00 | 7.00 to 8.00 | 7.00 to 8.00 | > 8.00 | > 8.00 | 7.00 to 8.00 | 7.00 to 8.00 | 7.00 to 8.00 | > 8.00 | 6.00 to 7.00 | > 8.00 | > 8.00 | > 8.00 | > 5.30 | –
CCn1c(-c2cccnc2[C@H](C)OC)c2c3cc(ccc31)-c1cc(O)cc(c1)C[C@H](NC(=O)[C@H](C1CCCC1)N1CC[C@]3(CCN(C(=O)[C@@H]4N[C@@H]4C4CC4)C3)C1=O)C(=O)N1CCC[C@H](N1)C(=O)OCC(C)(C)C2 [Example 214, (2S)-2-cyclopentyl-2-((S)-7-((2R,3R)-3-cyclopropylaziridine-2-carbonyl)-1-oxo-2,7-diazaspiro[4.4]nonan-2-yl)-N-((6^3S,4S)-1^1-ethyl-2^5-hydroxy-1^2-(2-((S)-1-methoxyethyl)pyridin-3-yl)-10,10-dimethyl-5,7-dioxo-6^1,6^2,6^3,6^4,6^5,6^6-hexahydro-1^1H-8-oxa-1(5,3)-indola-6(1,3)-pyridazina-2(1,3)-benzenacycloundecaphane-4-yl)acetamide] | – | – | – | – | – | – | – | – | – | – | – | 7.00 to 8.00 | 7.00 to 8.00 | – | > 5.30 | pIC50 ([1]; Ras-Raf disruption, read-out: KRAS G12D FRET data IC50): > 8.00; pIC50 ([2]; Ras-Raf disruption, read-out: KRAS G13D FRET data IC50): 6.00 to 7.00; pIC50 ([3]; Ras-Raf disruption, read-out: KRAS WT FRET data IC50): 7.00 to 8.00; pIC50 ([4]; NRAS WT, read-out: NRAS WT FRET data IC50): 7.00 to 8.00; pIC50 ([5]; NRAS G12C, read-out: NRAS G12C FRET data IC50): 7.00 to 8.00; pIC50 ([6]; KRAS Q61H, read-out: KRAS Q61H FRET data IC50): 7.00 to 8.00; pIC50 ([7]; NRAS Q61R, read-out: NRAS Q61R FRET data IC50): 6.00 to 7.00; pIC50 ([8]; Ras-Raf disruption, read-out: KRAS G12S FRET data IC50): 7.00 to 8.00; pIC50 ([9]; Ras-Raf disruption, read-out: KRAS G12V FRET data IC50): 7.00 to 8.00; pIC50 ([10]; Ras-Raf disruption, read-out: KRAS G13C FRET data IC50): 7.00 to 8.00; pIC50 ([11]; NRAS Q61K, read-out: NRAS Q61K FRET data IC50): 6.00 to 7.00; pIC50 ([14]; Ras-Raf disruption, read-out: KRAS G12C FRET data IC50): 7.00 to 8.00
CCn1c(-c2cccnc2[C@H](C)OC)c2c3cc(ccc31)-c1cc(O)cc(c1)C[C@H](NC(=O)[C@H](C(C)C)N(C)C(=O)CN(C)C(=O)[C@@]1(C)CN1)C(=O)N1CCC[C@H](N1)C(=O)OCC(C)(C)C2 [Example 256] | 7.00 to 8.00 | 7.00 to 8.00 | 7.00 to 8.00 | 7.00 to 8.00 | 7.00 to 8.00 | 7.00 to 8.00 | 6.00 to 7.00 | 7.00 to 8.00 | 7.00 to 8.00 | > 8.00 | 6.00 to 7.00 | 6.00 to 7.00 | 7.00 to 8.00 | 7.00 to 8.00 | > 5.30 | –
CCn1c(-c2cccnc2[C@H](C)OC)c2c3cc(ccc31)-c1cc(O)cc(c1)C[C@H](NC(=O)[C@H](C(C)C)N(C)C(=O)CN(C)C(=O)[C@]1(C)CN1)C(=O)N1CCC[C@H](N1)C(=O)OCC(C)(C)C2 [Example 257] | 6.00 to 7.00 | 7.00 to 8.00 | 7.00 to 8.00 | 7.00 to 8.00 | 7.00 to 8.00 | 7.00 to 8.00 | 6.00 to 7.00 | 7.00 to 8.00 | 7.00 to 8.00 | > 8.00 | 6.00 to 7.00 | 6.00 to 7.00 | 7.00 to 8.00 | 7.00 to 8.00 | > 5.30 | –
CCn1c(-c2cccnc2[C@H](C)OC)c2c3cc(ccc31)-c1cc(O)cc(c1)C[C@H](NC(=O)[C@H](C(C)C)N(C)C(=O)CN(C)C(=O)[C@@H]1N[C@@H]1C(F)(F)F)C(=O)N1CCC[C@H](N1)C(=O)OCC(C)(C)C2 [Example 258] | 7.00 to 8.00 | 7.00 to 8.00 | 7.00 to 8.00 | > 8.00 | 7.00 to 8.00 | > 8.00 | 7.00 to 8.00 | 7.00 to 8.00 | 7.00 to 8.00 | > 8.00 | 7.00 to 8.00 | 6.00 to 7.00 | 7.00 to 8.00 | 7.00 to 8.00 | > 5.30 | –
CCn1c(-c2cccnc2[C@H](C)OC)c2c3cc(ccc31)-c1cc(O)cc(c1)C[C@H](NC(=O)[C@H](C(C)C)N(C)C(=O)CN(C)C(=O)[C@@H]1CN1CCCOC(C)=O)C(=O)N1CCC[C@H](N1)C(=O)OCC(C)(C)C2 (stereo partly drawn) [Example 267] | 7.00 to 8.00 | 6.00 to 7.00 | 7.00 to 8.00 | – | > 8.00 | 7.00 to 8.00 | 6.00 to 7.00 | 7.00 to 8.00 | 7.00 to 8.00 | 7.00 to 8.00 | 6.00 to 7.00 | 6.00 to 7.00 | > 8.00 | > 8.00 | > 5.30 | –
